Test results from patent US10770169B2, “Method of providing a treatment to a subject based on a dynamic pathway map” (THE REGENTS OF THE UNIVERSITY OF CALIFORNIA, priority 2010, dated 2020).
Where two headings read alike, the source gives them in different places.

Key:
[1] = system: panel of 55 breast cancer cell lines; test: Cell growth inhibition assay (Cell Titer Glo, 72 h, 9 doses; GI50, TGI, LC50); assay type: cell-based, human; conditions: Homo sapiens, read-out: GI50 (converted)
[2] = system: luminal, basal, claudin-low and ERBB2AMP breast cancer cell lines; test: Associations of clinically relevant subtypes and response (non-parametric ANOVA or t-test on GI50 ranks); assay type: cell-based, human
How it was run: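 Significance was set at FDR p<0.20 after combining p-values across three test sets. Subtype–response associations came from rank-based non-parametric ANOVA or t-tests on GI50. For three-class comparisons, post-hoc tests of each group against the rest identified the most sensitive group, with FDR correction.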

SMILES: COc1cc([C@@H]2c3cc4c(cc3[C@@H](O[C@@H]3O[C@@H]5CO[C@@H](C)O[C@H]5[C@H](O)[C@H]3O)[C@H]3COC(=O)[C@H]23)OCO4)cc(OC)c1O [Etoposide]
- GI50 ([1]; 600MPE cell line, censored GI50 values): 9.77 µM
- GI50 ([1]; AU565, AU565 cell line, censored GI50 values): 0.676 µM
- GI50 ([1]; AU565, cell line AU565): 0.676 µM
- GI50 ([1]; BT-20, BT20 cell line, censored GI50 values): 3.31 µM
- GI50 ([1]; BT-20, cell line BT20): 3.31 µM
- GI50 ([1]; BT-474, BT474 cell line, censored GI50 values): 19.1 µM
- GI50 ([1]; BT-474, cell line BT474): 19.1 µM
- GI50 ([1]; BT-483, BT483 cell line, censored GI50 values): 4.27 µM
- GI50 ([1]; BT-483, cell line BT483): 4.27 µM
- GI50 ([1]; BT-549, BT549 cell line, censored GI50 values): 1.38 µM
- GI50 ([1]; BT-549, cell line BT549): 1.38 µM
- GI50 ([1]; CAMA-1, CAMA1 cell line, censored GI50 values): 5.01 µM
- GI50 ([1]; CAMA-1, cell line CAMA1): 5.01 µM
- GI50 ([1]; HCC38, HCC38 cell line, censored GI50 values): 0.295 µM
- GI50 ([1]; HCC38, cell line HCC38): 0.295 µM
- GI50 ([1]; HCC70, HCC70 cell line, censored GI50 values): 12.9 µM
- GI50 ([1]; HCC70, cell line HCC70): 12.9 µM
- GI50 ([1]; HCC202, HCC202 cell line, censored GI50 values): 0.933 µM
- GI50 ([1]; HCC202, cell line HCC202): 0.933 µM
- GI50 ([1]; HCC1143, HCC1143 cell line, censored GI50 values): 5.13 µM
- GI50 ([1]; HCC1143, cell line HCC1143): 5.13 µM
- GI50 ([1]; HCC1187, HCC1187 cell line, censored GI50 values): 0.692 µM
- GI50 ([1]; HCC1187, cell line HCC1187): 0.692 µM
- GI50 ([1]; HCC1395, HCC1395 cell line, censored GI50 values): 3.09 µM
- GI50 ([1]; HCC1395, cell line HCC1395): 3.09 µM
- GI50 ([1]; HCC1419, HCC1419 cell line, censored GI50 values): 70.8 µM
- GI50 ([1]; HCC1419, cell line HCC1419): 70.8 µM
- GI50 ([1]; HCC1428, HCC1428 cell line, censored GI50 values): 34.7 µM
- GI50 ([1]; HCC1428, cell line HCC1428): 34.7 µM
- GI50 ([1]; HCC1500, HCC1500 cell line, censored GI50 values): 1.41 µM
- GI50 ([1]; HCC1500, cell line HCC1500): 1.41 µM
- GI50 ([1]; HCC1806, HCC1806 cell line, censored GI50 values): 3.09 µM
- GI50 ([1]; HCC1806, cell line HCC1806): 3.09 µM
- GI50 ([1]; HCC1937, HCC1937 cell line, censored GI50 values): 4.57 µM
- GI50 ([1]; HCC1937, cell line HCC1937): 4.57 µM
- GI50 ([1]; HCC1954, HCC1954 cell line, censored GI50 values): 1 µM
- GI50 ([1]; HCC1954, cell line HCC1954): 1 µM
- GI50 ([1]; HCC2185 cell line, censored GI50 values): 7.76 µM
- GI50 ([1]; HCC3153 cell line, censored GI50 values): 2.95 µM
- GI50 ([1]; MCF7, MCF7 cell line, censored GI50 values): 11.2 µM
- GI50 ([1]; MCF7, cell line MCF7): 11.2 µM
- GI50 ([1]; MDA-MB-134-VI, MDAMB134VI cell line, censored GI50 values): 2.45 µM
- GI50 ([1]; MDA-MB-157, MDAMB157 cell line, censored GI50 values): 0.955 µM
- GI50 ([1]; MDA-MB-157, cell line MDAMB157): 0.955 µM
- GI50 ([1]; MDA-MB-175-VII, MDAMB175VII cell line, censored GI50 values): 72.4 µM
- GI50 ([1]; MDA-MB-231, MDAMB231 cell line, censored GI50 values): 2.04 µM
- GI50 ([1]; MDA-MB-231, cell line MDAMB231): 2.04 µM
- GI50 ([1]; MDA-MB-361, MDAMB361 cell line, censored GI50 values): 14.1 µM
- GI50 ([1]; MDA-MB-361, cell line MDAMB361): 14.1 µM
- GI50 ([1]; MDA-MB-415, MDAMB415 cell line, censored GI50 values): 13.8 µM
- GI50 ([1]; MDA-MB-415, cell line MDAMB415): 13.8 µM
- GI50 ([1]; MDA-MB-436, MDAMB436 cell line, censored GI50 values): 1 µM
- GI50 ([1]; MDA-MB-436, cell line MDAMB436): 1 µM
- GI50 ([1]; MDA-MB-453, MDAMB453 cell line, censored GI50 values): 5.01 µM
- GI50 ([1]; MDA-MB-453, cell line MDAMB453): 5.01 µM
- GI50 ([1]; MDA-MB-468, MDAMB468 cell line, censored GI50 values): 2.57 µM
- GI50 ([1]; MDA-MB-468, cell line MDAMB468): 2.57 µM
- GI50 ([1]; SK-BR-3, SKBR3 cell line, censored GI50 values): 1.2 µM
- GI50 ([1]; SK-BR-3, cell line SKBR3): 1.2 µM
- GI50 ([1]; SUM52PE, SUM52PE cell line, censored GI50 values): 2.57 µM
- GI50 ([1]; SUM52PE, cell line SUM52PE): 2.57 µM
- GI50 ([1]; SUM149PT, SUM149PT cell line, censored GI50 values): 2.63 µM
- GI50 ([1]; SUM149PT, cell line SUM149PT): 2.63 µM
- GI50 ([1]; SUM185PE, SUM185PE cell line, censored GI50 values): 4.9 µM
- GI50 ([1]; SUM185PE, cell line SUM185PE): 4.9 µM
- GI50 ([1]; SUM225CWN, SUM225CWN cell line, censored GI50 values): 10.2 µM
- GI50 ([1]; SUM225CWN, cell line SUM225CWN): 10.2 µM
- GI50 ([1]; SUM1315MO2, SUM1315MO2 cell line, censored GI50 values): 0.288 µM
- GI50 ([1]; SUM-159-PT, SUM159PT cell line, censored GI50 values): 0.776 µM
- GI50 ([1]; SUM-159-PT, cell line SUM159PT): 0.776 µM
- GI50 ([1]; T47D, T47D cell line, censored GI50 values): 1.07 µM
- GI50 ([1]; T47D, cell line T47D): 1.07 µM
- GI50 ([1]; UACC-893, UACC893 cell line, censored GI50 values): 55 µM
- GI50 ([1]; UACC-893, cell line UACC893): 55 µM
- GI50 ([1]; ZR-75-1, ZR751 cell line, censored GI50 values): 2.09 µM
- GI50 ([1]; ZR-75-1, cell line ZR751): 2.09 µM
- GI50 ([1]; ZR-75B, ZR75B cell line, censored GI50 values): 0.871 µM
- GI50 ([1]; ZR-75B, cell line ZR75B): 0.871 µM
- GI50 ([1]; cell line 600MPE): 9.77 µM
- GI50 ([1]; cell line HCC2185): 7.76 µM
- GI50 ([1]; cell line HCC3153): 2.95 µM
- GI50 ([1]; cell line MDAMB134V): 2.45 µM
- GI50 ([1]; cell line MDAMB175V): 72.4 µM
- GI50 ([1]; cell line SUM1315MO): 0.288 µM
- subtype-specific response (sensitivity by transcriptional subtype) ([2]; GI50 across subtypes): preferential activity in basal and/or claudin-low cell lines
- Subtype specificity ([2]; Table 6, most sensitive subtype, FDR p<0.20): Claudin-low
